According to patent publication US20050175597A1 (priority 2002, published 2005):

Key:
[1] = tested on: Lactobacillus casei shirota; assay: Lactobacillus casei shirota viable plate counts after SGF treatment with or without colostrum; conditions: L. casei shirota, no colostrum
Lactobacillus plantarum [2] = tested on: Lactobacillus plantarum; set-up: species or system mice; conditions: mouse, in vivo
Lactobacillus plantarum [3] = tested on: Lactobacillus plantarum

## Lactobacillus casei shirota [Lactobacillus + H2O]
[1]
  reduction in Lactobacillus viability: ≥ 10,000 fold

## O=C([O-])O.[Na+] [sodium bicarbonate, Sodium bicarbonate]
Lactobacillus plantarum [2]
  survival of Lactobacillus plantarum (large intestine, FIG. 7): increased
  survival of Lactobacillus plantarum at higher concentrations of protectant: increased survival

## Lactobacillus plantarum [Lactobacillus + H2O]
Lactobacillus plantarum [3]
  reduction in Lactobacillus viability: 1000 fold
